According to EP0906294B1 (WARNER-LAMBERT COMPANY, priority 1996, dated 1997):
Where two headings read alike, the source gives them in different places.

Experiments:
[1] = target: T1, human recombinant dopamine D4.2 receptor subtype (Homo sapiens, UniProt P21917, DEL265-296); assay: Receptor binding assay, [3H]spiperone competition, D4.2; settings: for D2/D4 Ratio: ratio of D2 Ki to D4 Ki
T1 sequence (P21917 with tags, fused parts or gaps DEL265-296): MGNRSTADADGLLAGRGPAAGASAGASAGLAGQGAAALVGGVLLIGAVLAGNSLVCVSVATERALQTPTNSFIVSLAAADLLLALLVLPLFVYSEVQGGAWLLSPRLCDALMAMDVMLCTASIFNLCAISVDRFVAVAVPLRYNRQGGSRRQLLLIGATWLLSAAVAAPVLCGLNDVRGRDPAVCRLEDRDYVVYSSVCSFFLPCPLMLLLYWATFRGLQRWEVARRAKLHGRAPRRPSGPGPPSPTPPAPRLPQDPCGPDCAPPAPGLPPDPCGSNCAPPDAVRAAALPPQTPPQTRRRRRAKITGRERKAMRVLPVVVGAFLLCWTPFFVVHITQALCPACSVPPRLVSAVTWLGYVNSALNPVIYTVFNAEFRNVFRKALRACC
Protocol: (§1) The D2 receptor cDNA was subcloned into an expression vector, pRc/CMV. The plasmids were transfected by electroporation into CHO K1 cells. A single stable transfectant, resistant to the antibiotic G418, was isolated and selected for use in the binding studies.
(§2) Cells were grown until confluent, after which growth medium was removed and replaced with 0.02% ethylene diamine tetracetate (EDTA) in a phosphate-buffered saline solution (Sigma Chemical Co., St. Louis, Missouri) and scraped from the flasks. The cells were centrifuged at about 1000 × g for 10 minutes at […] and then resuspended in TEM buffer (25 mM Tris-HCl, pH 7.4, 5 mM EDTA, and 6 mM MgCl2) for D2 or the D4.2 buffer (50 mM Tris-HCl, pH 7.4, 5 mM EDTA, 1.5 mM CaCl2, 5 mM KCl, and 120 mM NaCl) and homogenized. The membranes were pelleted by centrifugation at 20,000 × g at […] for 20 minutes. Then the pellets were resuspended in appropriate buffer at 1 mL/flask and stored at -70°C until used in the receptor binding assay.
(§3) After 60 minutes incubation at 25°C, the incubations were terminated by rapid filtration through Whatmann GF/B glass fibre filters (soaked for 1 hour in 0.5% polyethylenimine) on a -cell harvester, with three washes of 1 mL ice-cold buffer. Individual filter disks containing the bound ligand were placed in counting vials with 4 mL of scintillation fluid (Ready Gel, Beckman Instrument Inc., Fullerton, California) and then counted in a Beckman LS-6800 liquid scintillation counter at an efficiency of 45%. Nonspecific binding was defined in presence of […] of haloperidol.
(§4) Saturation and competition binding data were analyzed using an iterative nonlinear least-square curve-fitting Ligand program. […] Experimental compounds were made up as stock solutions in dimethyl sulfoxide (DMSO). […] Each observation was carried out in triplicate. To allow these calculations, Ki values were measured for the interaction of various ligands with the receptor. […]

[2] = target: human dopamine D2 (Long form) receptors (Homo sapiens, UniProt P14416); assay: Receptor binding assay, [3H]spiperone competition, D2
Protocol: as §1, §2, §3, §4

[3] = CHO K1 cell membranes, 0.2 nM [3H]spiperone, 60 minutes at 25°C, apparent Ki from IC50 by Cheng and Prusoff, read-out: D4 (Ki)
[4] = CHO K1 cell membranes, 0.2 nM [3H]spiperone, 60 minutes at 25°C, apparent Ki from IC50 by Cheng and Prusoff

Chain of human dopamine D2 (Long form) receptors (P14416 whole entry): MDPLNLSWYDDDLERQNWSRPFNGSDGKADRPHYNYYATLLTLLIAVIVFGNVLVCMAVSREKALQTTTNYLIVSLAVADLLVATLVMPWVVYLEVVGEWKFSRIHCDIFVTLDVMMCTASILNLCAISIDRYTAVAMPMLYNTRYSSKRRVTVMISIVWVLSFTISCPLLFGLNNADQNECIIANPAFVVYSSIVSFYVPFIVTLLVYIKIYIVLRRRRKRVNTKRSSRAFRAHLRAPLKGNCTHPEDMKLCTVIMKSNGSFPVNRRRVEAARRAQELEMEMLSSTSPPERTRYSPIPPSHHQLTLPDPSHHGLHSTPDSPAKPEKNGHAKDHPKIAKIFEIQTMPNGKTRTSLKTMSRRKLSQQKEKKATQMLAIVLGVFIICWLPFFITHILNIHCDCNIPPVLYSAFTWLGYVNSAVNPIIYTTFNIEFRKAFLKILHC

Structure (SMILES)	Ki ([1]; read-out: D4 (Ki))	Ki [2, 4]	D2/D4 Ratio [1]	other results
O=C1COc2ccc(CN3CCN(c4ccc(C(F)(F)F)cc4)CC3)cc2N1 [Example 31, 6-[4-(4-Trifluoromethyl-phenyl)-piperazin-l-ylmethyl] -4H-benzo[1,4]oxazin-3-one]	–	–	–	Ki [1, 3]: 173 nM
Cc1ccc(C2CCN(Cc3ccc4c(c3)NC(=O)CO4)CC2)cc1 [Example 16, 6-(4-p-tolyl-piperidin-1-ylmethyl)-4H-benxo[1,4]oxazin-3-one]	–	–	–	Ki [1, 3]: 2.84 nM
O=C1COc2ccc(CN3CCN(c4ccccc4)CC3)cc2N1 [Example 8, 6-[4-phenyl-piperazin-1-ylmethyl]-4H-benzo[1,4]oxazin-3-one]	18.3 nM	–	–	–
O=C1COc2cc(CN3CCN(c4ccccc4)CC3)ccc2N1 [Example 13, 7-(4-phenyl-piperazin-1-ylmethyl)-4H-benzo[1,4]oxazine-3-one]	6.09 nM	129 nM	–	–
NS(=O)(=O)c1ccc(N2CCN(Cc3ccc4c(c3)NC(=O)CO4)CC2)cc1 [Example 4, 4-[4-(3-oxo-3,4-dihydro-2H-benzo[1,4]-oxazin-6-ylmethyl)-piperazin-1-yl]-benzenesulfonamide]	23.6 nM	–	–	–
Cc1ccc(N2CCN(Cc3ccc4c(c3)OCC(=O)N4)CC2)cc1C [Example 14, 7-[4-(3,4-dimethyl-phenyl)-piperazin-1-ylmethyl]-4H-benzo[1,4]oxazine-3-one]	–	346 nM	–	–
O=C1COc2cc(CN3CCN(c4ccc(Cl)cc4)CC3)ccc2N1 [Example 35, 7-[4-(4-Chloro-phenyl)-piperazin-1-ylmethyl]-4H-benzo[1,4]oxazin-3-one]	–	–	132.5	Ki [2]: 620 nM; Ki [1]: 4.68 nM
COc1ccc(N2CCN(Cc3ccc4c(c3)OCC(=O)N4)CC2)cc1 [Example 34, 7-[4-(4-Methoxy-phenyl)-piperazin-1-ylmethyl]-4H-benzo[1,4]oxazin-3-one]	5 nM	≥ 5880 nM	1176.5	–

The next lines start with results.

Ki ([1]; read-out: D4 (Ki))	Ki [2, 4]	D2/D4 Ratio [1]	Structure (SMILES)	other results
6.7 nM	1130 nM	168.1	COc1ccc(C2CCN(Cc3ccc4c(c3)OCC(=O)N4)CC2)cc1 [Example 38, 7-[4-(4-Methoxy-phenyl)-piperidin-1-ylmethyl]-4H-benzo[1,4]oxazin-3-one]	–
2.61 nM	610 nM	–	Cc1ccc(C2CCN(Cc3ccc4c(c3)OCC(=O)N4)CC2)cc1C [Example 36, 7-[4-(3,4-Dimethyl-phenyl)-piperidin-1-ylmethyl]-4H-benzo[1,4]oxazin-3-one]	–
–	698 nM	–	COc1ccc(C2CCN(Cc3ccc4c(c3)NC(=O)CO4)CC2)cc1 [Example 37, 6-[4-(4-Methoxy-phenyl) -piperidin-1-ylmethyl]-4H-benzo[1,4]oxazin-3-one]	–
2.6 nM	287 nM	110.5	Cc1ccc(C2CCN(Cc3ccc4c(c3)OCC(=O)N4)CC2)cc1 [Example 41, 7-(4-p-Tolyl-piperidin-1-ylmethyl)-4H-benzo[1,4]oxazin-3-one]	–
62.5 nM	–	–	O=C1COc2ccc(CN3CCN(c4ccc(Cl)cc4)CC3)cc2N1 [Example 32, 6-[4-(4-Chloro-phenyl)-piperazin-1-ylmethyl]-4H-benzo [1,4]oxazin-3-one]	–
